Laboratory results: paper PMC10609944, “Development of a Dosage form for a Photoswitchable Local Anesthetic Ethercaine” (Pharmaceuticals, 2023)
Converted amounts (≈) assume the structure as drawn. Where a name gives a salt, the structure may show the parent alone. Read-outs that look alike come from different tables or passages of the source. Marks after values point to notes of the source that are not given here.

Columns and labels:
[1] = Solubilization of ethercaine: maximum solubility; type: physicochemical
Text: Since ETH itself, as a free base, is virtually insoluble in water and only partially soluble in 4% solution of Kolliphor ELP, at the first stage it was decided to study the effects of increasing the concentration of Kolliphor ELP and replacing it with Pluronic F127. Pluronic F127 is also an FDA-approved solubilizer of a different nature to the Kolliphor ELP, so it was selected as an alternative solubilizer for the study. Both substances are surfactants capable of forming direct micelles in aqueous solutions for loading hydrophobic compounds that are sparingly soluble in water. We chose a 4% concentration of Kolliphor ELP as the initial concentration that is suitable for the solubilization of hydrophobic dyes but is safe for clinical use, including for intravenous administration. In the case of other administration routes, for example, for ophthalmic use, this concentration can be increased. For further studies, we chose a 10% concentration of Kolliphor ELP. Despite an almost two-fold increase in the maximum solubility of ETH (Table 1) with an increase in the concentration of Kolliphor ELP from 4% to 10%, data on biological activity indicated an unstable and undulating local anesthetic effect on the cornea of the rabbit eye according to the Regnier method, which appeared to be due to the delayed drug release at high surfactant concentrations.
At the next stage of the solubility study, micelle-forming solubilizers and an anesthetic in the form of the ETH·HCl salt were used.
A solution of 4-(2-(N-morpholino)-ethoxy)-azobenzene hydrochloride (2) (50.0 mg) in dichloromethane (2 mL) was added dropwise to a freshly prepared 4% aqueous solution of solubilizer (Kolliphor® ELP or Pluronic F127) (5 mL) heated to 45 °C with continuous argon bubbling. Bubbling was continued until strong foaming started. A clear orange solution with a concentration of 1.0% was obtained, which was subsequently filtered in turn through 0.45 µm PTFE filter and then through 0.22 µm PTFE filter.

[2] = Spectrophotometric determination of Z→E half-transformation time (t1/2) in solutions; type: physicochemical; details: after 365 nm irradiation, thermal back Z→E, room temperature
Method: This parameter depends on a number of conditions, including the solvent; therefore, at the next stage, the effect of the solubilizer on the t1/2 value was examined. The study was carried out by a standard method using UV/Vis spectrophotometry. At the beginning of the experiment, the spectrum of the initial photostationary state (PSS) with predominance of the E-form was recorded, after which the solution was irradiated with UV light (λ = 365 nm) and the spectrum of the resulting PSS, with predominance of the Z-form, was recorded.
Next, the rate of reverse isomerization was monitored by measuring the absorption intensity at 5 min intervals. […]
UV/Vis spectroscopy was used for the time determination of Z-isomers’ half-lifes. […] Then, lnAt/A0 values were calculated using Equation (1):(1) lnAt/A0=lnAbsPSS(dark)−Abstime/AbsPSS(dark)−AbsPSS(365nm), where AbsPSS(dark) , AbsPSS(365nm), and Abstime are absorbance values at λmax(E) in the dark at the beginning of the experiment, after UV light (λ = 365 nm) irradiation and at different time points from 0 to 60 min, respectively. Then, a graph was plotted depending on the lnAt/A0 values from the time, a trend line was calculated and a first-order rate constant (k) for the thermal back Z–E isomerization reaction was obtained as the slope of the trend line. […]

[3] = tested on: rabbit eye cornea; assay: Local anesthetic activity, surface anesthesia on rabbit eye cornea, Regnier method; details: solutions irradiated with UV light λ = 365 nm vs dark
Text: The essence of the method is to estimate the number of eye closures during the tactile exposure of the cornea of a rabbit’s eye. According to the method, four animals (eight experimental points) were selected for each group, except two groups with a negative control. For the latter two animals (four experimental points) were used due to the lack of the activity and to minimize the number of animals in the experiment. The animals were randomly divided into four experimental (1% ETH·HCl in 4% Kolliphor ELP or in 4% Pluronic F127, two modes with and without UV irradiation) and four control groups (4% Kolliphor ELP or 4% Pluronic F127, two modes with and without UV irradiation).
For determination of the sensitivity of rabbit eye cornea using the surface anesthesia method, a total of four rabbits with a basic sensitivity threshold of 1–2 touches were selected. […]
Before the experiment began, the animal was restrained, leaving only its head free. The eyelashes were cut and the sensitivity threshold was determined for each eye. […] After that, the sensitivity threshold of the eye cornea to tactile impact was determined. […] Each time, tactile stimulation of the same strength and rhythm was applied to the cornea and the minimum number of touches causing the eyelids to close (but no more than 100 touches and no longer than for 1 min) was recorded.

[4] = tested on: rabbit eye cornea; design: method as in PMID 35628162; details: n = 8, cited from earlier work
[5] = design: method as in PMID 35628162; details: in 4% Kolliphor ELP; cited from earlier work
[6] = aqueous micellar solution of Kolliphor ELP, aqueous with cosolvent or surfactant or cyclodextrin, 4% micellar solution of Kolliphor ELP, read-out: Maximum Solubility of Ethercaine
[7] = aqueous micellar solution of Pluronic F127, aqueous with cosolvent or surfactant or cyclodextrin, 4% micellar solution of Pluronic F127, read-out: Maximum Solubility of Ethercaine
[8] = water without excipients, water, no excipients, read-out: Maximum Solubility of Ethercaine

solubility ([1]; aqueous micellar solution of Kolliphor ELP, 4% micellar solution of Kolliphor ELP, read-out: Maximum Solubility of Ethercaine) [µg/mL] | solubility [1, 6] [µg/mL] | solubility ([1]; aqueous micellar solution of Pluronic F127, 4% micellar solution of Pluronic F127, read-out: Maximum Solubility of Ethercaine) [µg/mL] | solubility [1, 7] [µg/mL] | solubility [1, 8] [µg/mL] | Half-Transformation Time (t1/2) ([2]; 4% micellar solution of Kolliphor ELP) [h] | Half-Transformation Time (t1/2) ([2]; 4% micellar solution of Pluronic F127) [h] | solubility ([1]; aqueous micellar solution of Kolliphor ELP, aqueous with cosolvent or surfactant or cyclodextrin, 10% micellar solution of Kolliphor ELP, read-out: Maximum Solubility of Ethercaine) [µg/mL] | solubility ([1]; before development of the dosage form) [%] | solubility of the anesthetic in water ([1]; before the hydrochloride micellar dosage forms) [wt.%] | solubility ([1]; developed dosage form) [%] | solubility of the anesthetic in water ([1]; dosage forms based on micellar solutions of Kolliphor ELP and Pluronic F127) [wt.%] | Compound | decrease in the local anesthetic effect on UV irradiation (factor) [3] | Regnier Index (Min—13, Max—1300) ([4]; Dark) | Regnier Index (Min—13, Max—1300) ([4]; UV λ = 365 nm) | maximum concentration such that the solution remained stable [5] [wt.%]
≥ 20000 | > 20000 | ≥ 20000 | > 20000 | 6000 | 0.85 | 1.15 | – | – | – | – | – | c1ccc(/N=N/c2ccc(OCCN3CCOCC3)cc2)cc1 [ETH·HCl, 4-(2-(N-Morpholino)-Ethoxy)-Azobenzene Hydrochloride] | 16–20 | – | – | –
– | – | – | – | – | – | – | – | – | – | – | – | CCN(CC)CC(=O)Nc1c(C)cccc1C [2% lidocaine hydrochloride, lidocaine hydrochloride] | – | 451 ± 40 (n = 8) ^a | 469 ± 37 (n = 8) ^a | –
– | 6000 (≈ 19.3 mM) | – | 7000 (≈ 22.5 mM) | < 1000 | – | – | 10000 (≈ 32.1 mM) | 0.6 | 0.6 | ≥ 2 | ≥ 2 | c1ccc(N=Nc2ccc(OCCN3CCOCC3)cc2)cc1 [ETH, 4-(2-(N-Morpholino)-ethoxy)-azobenzene] | – | – | – | 0.6
